{
  "source": "paper PMC10194883",
  "about": "(PLOS ONE, 2023)",
  "type_in_all_cases": "cell-based",
  "key": {"[1]": {"system": "SARS-CoV-2 pseudovirus Omicron (B.1.1529) into ACE2h cells"}, "[2]": {"system": "SARS-CoV-2 Delta (B.1.617.2) pseudovirus into ACE2h cells", "assay": "microbe, parasite or virus in culture"}, "[3]": {"system": "ACE2 high expressing-HEK293T cells (ACE2h cells)", "settings": "24 h, even at 100 μM", "description": "For cytotoxicity assay, ACE2^h cells were seeded into 96-well plates at a density of 1×10^4 cells per well and then treated with different concentrations of OA (0.01, 0.1, 1, 10, 100 μM) for 24 h, then 10 μL of Cell Counting Kit (IV08-500, Invigentech, USA) solution was added to each well followed by 2 h of incubation. The relative cell viability was assessed by the detection of the absorbance at 450 nm using a microplate reader (Infinite F50, Thermo Fisher, China). The survival rate of ACE2^h cells was calculated as the following formula: Survival rate = [(OD Treated –OD Blank) / (OD Control−OD Blank)] × 100%."}},
  "data": [
    {"smiles": "O=C(O)C(=O)O", "note": "[OA, Oxalic acid]", "values": [
      {"measurement": "luciferase activity compared to the control", "setting": "[1]", "value": "significantly reduced"},
      {"measurement": "expression of green fluorescent protein in ACE2h cells", "setting": "[2]", "value": "significantly reduced"},
      {"measurement": "IC50", "setting": "[2]; Pseudovirus, read-out: IC50, inhibition of entry of Delta pseudovirus into ACE2h cells", "value": 26, "unit": "µM"},
      {"measurement": "cytotoxic effect (cell viability)", "setting": "[3]", "value": "no significant cytotoxic effect"}
    ]}
  ]
}
